Laboratory results as given in patent US12441691B2 (Cytokinetics, Inc., priority 2020, dated 2025).

Test system: rabbit skeletal myofibrils (fast skeletal myofibrils)
Assay: Activation of fast skeletal myofibrils (PUMA assay, AC1.4)
Type: biochemical
Conditions: calcium at pCa25, AC1.4 = concentration at which the compound increased the enzymatic activity
How it was run: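 In 12 mM PIPES pH 6.8 with 2 mM MgCl2 and 1 mM DTT, Triton-washed rabbit skeletal myofibrils were run at the pCa25 calcium level. Myosin-made ADP was recycled through a PK/LDH coupled system; NADH loss read at 340 nm.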

SMILES | AC1.4
CC[C@H](C)[C@H]1C(=O)Nc2ccccc2CN1C(=O)Nc1nncs1 [Compound 251, (S)-3-((S)-sec-butyl)-2-oxo-N-(1,3,4-thiadiazol-2-yl)-1,2,3,5-tetrahydro-4H-benzo[e][1,4]diazepine-4-carboxamide] | 0.08 µM
CC[C@H](C)[C@H]1C(=O)Nc2ccccc2CN1C(=O)N[C@@H](C(N)=O)c1ccccc1 [Compound 252, (S)-N-((R)-2-amino-2-oxo-1-phenylethyl)-3-((S)-sec-butyl)-2-oxo-1,2,3,5-tetrahydro-4H-benzo[e][1,4]diazepine-4-carboxamide] | 0.44 µM
CC[C@H](C)[C@H]1C(=O)Nc2ccccc2CN1C(=O)Nc1ccc(=O)n(CC)c1 [Compound 253, (S)-3-((S)-sec-butyl)-N-(1-ethyl-6-oxo-1,6-dihydropyridin-3-yl)-2-oxo-1,2,3,5-tetrahydro-4H-benzo[e][1,4]diazepine-4-carboxamide] | 0.08 µM
CC[C@H](C)[C@H]1C(=O)Nc2ccccc2CN1C(=O)Nc1ccc(=O)n(CC2CC2)c1 [Compound 254, (S)-3-((S)-sec-butyl)-N-(1-(cyclopropylmethyl)-6-oxo-1,6-dihydropyridin-3-yl)-2-oxo-1,2,3,5-tetrahydro-4H-benzo[e][1,4]diazepine-4-carboxamide] | 0.07 µM
CC[C@H](C)[C@H]1C(=O)Nc2ccccc2CN1C(=O)Nc1cccn(CCOC)c1=O [Compound 255, (S)-3-((S)-sec-butyl)-N-(1-(2-methoxyethyl)-2-oxo-1,2-dihydropyridin-3-yl)-2-oxo-1,2,3,5-tetrahydro-4H-benzo[e][1,4]diazepine-4-carboxamide] | 0.13 µM
CC[C@H](C)[C@H]1C(=O)Nc2ccccc2CN1C(=O)N[C@@H](C)C(N)=O [Compound 256, (S)-N-((S)-1-amino-1-oxopropan-2-yl)-3-((S)-sec-butyl)-2-oxo-1,2,3,5-tetrahydro-4H-benzo[e][1,4]diazepine-4-carboxamide] | 1.89 µM
CC[C@H](C)[C@H]1C(=O)Nc2ccccc2CN1C(=O)Nc1cc(C(F)(F)F)c[nH]c1=O [Compound 257, (S)-3-((S)-sec-butyl)-2-oxo-N-(2-oxo-5-(trifluoromethyl)-1,2-dihydropyridin-3-yl)-1,2,3,5-tetrahydro-4H-benzo[e][1,4]diazepine-4-carboxamide] | 0.02 µM
CC[C@H](C)[C@H]1C(=O)Nc2ccccc2CN1C(=O)Nc1cc(-c2ccncc2)c[nH]c1=O [Compound 258, (S)-3-((S)-sec-butyl)-2-oxo-N-(6-oxo-1,6-dihydro-[3,4′-bipyridin]-5-yl)-1,2,3,5-tetrahydro-4H-benzo[e][1,4]diazepine-4-carboxamide] | 0.29 µM
CC[C@H](C)[C@H]1C(=O)Nc2ccccc2CN1C(=O)NCC(=O)N1CCC[C@H]1C(=O)O [Compound 259, ((S)-3-((S)-sec-butyl)-2-oxo-2,3,4,5-tetrahydro-1H-benzo[e][1,4]diazepine-4-carbonyl)glycyl-L-proline] | 2.44 µM
CC[C@H](C)[C@H]1C(=O)Nc2ccccc2CN1C(=O)NCCN1CCNC1=O [Compound 260, (S)-3-((S)-sec-butyl)-2-oxo-N-(2-(2-oxoimidazolin-1-yl)ethyl)-1,2,3,5-tetrahydro-4H-benzo[e][1,4]diazepine-4-carboxamide] | 1.91 µM
CC[C@H](C)[C@H]1C(=O)Nc2ccccc2CN1C(=O)NCC1(CO)COC1 [Compound 261, (S)-3-((S)-sec-butyl)-N-((3-(hydroxymethyl)oxetan-3-yl)methyl)-2-oxo-1,2,3,5-tetrahydro-4H-benzo[e][1,4]diazepine-4-carboxamide] | 3.34 µM
CC[C@H](C)[C@H]1C(=O)Nc2ccccc2CN1C(=O)NCCCCN1CCC(C(N)=O)CC1 [Compound 262, (S)-3-((S)-sec-butyl)-N-(4-(4-carbamoylpiperidin-1-yl)butyl)-2-oxo-1,2,3,5-tetrahydro-4H-benzo[e][1,4]diazepine-4-carboxamide] | 0.46 µM
CC[C@H](C)[C@H]1C(=O)Nc2ccccc2CN1C(=O)NCC(C)(C)C(N)=O [Compound 263, (S)-N-(3-amino-2,2-dimethyl-3-oxopropyl)-3-((S)-sec-butyl)-2-oxo-1,2,3,5-tetrahydro-4H-benzo[e][1,4]diazepine-4-carboxamide] | 2.70 µM
CC[C@H](C)[C@H]1C(=O)Nc2ccccc2CN1C(=O)N1CC(N2CCCC2)C1 [Compound 264, (S)-3-((S)-sec-butyl)-4-(3-(pyrrolidin-1-yl)azetidine-1-carbonyl)-1,3,4,5-tetrahydro-2H-benzo[e][1,4]diazepin-2-one] | 0.84 µM
CC[C@H](C)[C@H]1C(=O)Nc2ccccc2CN1C(=O)N1CC(N2CCN(C)CC2)C1 [Compound 265, (S)-3-((S)-sec-butyl)-4-(3-(4-methylpiperazin-1-yl)azetidine-1-carbonyl)-1,3,4,5-tetrahydro-2H-benzo[e][1,4]diazepin-2-one] | 0.70 µM
CC[C@H](C)[C@H]1C(=O)Nc2ccccc2CN1C(=O)N1CC(N2CCOCC2)C1 [Compound 266, (S)-3-((S)-sec-butyl)-4-(3-morpholinoazetidine-1-carbonyl)-1,3,4,5-tetrahydro-2H-benzo[e][1,4]diazepin-2-one] | 2.47 µM

SMILES | AC1.4
CC[C@H](C)[C@H]1C(=O)Nc2ccccc2CN1C(=O)N1CC(N2CCN(CCO)CC2)C1 [Compound 267, (S)-3-((S)-sec-butyl)-4-(3-(4-(2-hydroxyethyl)piperazin-1-yl)azetidine-1-carbonyl)-1,3,4,5-tetrahydro-2H-benzo[e][1,4]diazepin-2-one] | 0.95 µM
CC[C@H](C)[C@H]1C(=O)Nc2ccccc2CN1C(=O)N1CC(N2CCN(c3ccccn3)CC2)C1 [Compound 268, (S)-3-((S)-sec-butyl)-4-(3-(4-(pyridin-2-yl)piperazin-1-yl)azetidine-1-carbonyl)-1,3,4,5-tetrahydro-2H-benzo[e][1,4]diazepin-2-one] | 1.03 µM
CC[C@H](C)[C@H]1C(=O)Nc2ccccc2CN1C(=O)N1CC(OCC(=O)N(C)C)C1 [Compound 269, 2-((1-((S)-3-((S)-sec-butyl)-2-oxo-2,3,4,5-tetrahydro-1H-benzo[e][1,4]diazepine-4-carbonyl)azetidin-3-yl)oxy)-N,N-dimethylacetamide] | 0.92 µM
CC[C@H](C)[C@H]1C(=O)Nc2ccccc2CN1C(=O)N1CC(OCC(=O)NC)C1 [Compound 270, 2-((1-((S)-3-((S)-sec-butyl)-2-oxo-2,3,4,5-tetrahydro-1H-benzo[e][1,4]diazepine-4-carbonyl)azetidin-3-yl)oxy)-N-methylacetamide] | 0.94 µM
CC[C@H](C)[C@H]1C(=O)Nc2ccccc2CN1C(=O)N1CC(C)(N)C1 [Compound 271, (S)-4-(3-amino-3-methylazetidine-1-carbonyl)-3-((S)-sec-butyl)-1,3,4,5-tetrahydro-2H-benzo[e][1,4]diazepin-2-one] | 0.95 µM
CC[C@H](C)[C@H]1C(=O)Nc2ccccc2CN1C(=O)N1C2COCC1C2 [Compound 272, (3S)-4-(3-oxa-6-azabicyclo[3.1.1]heptane-6-carbonyl)-3-((S)-sec-butyl)-1,3,4,5-tetrahydro-2H-benzo[e][1,4]diazepin-2-one] | 2.62 µM
CC[C@H](C)[C@H]1C(=O)Nc2ccccc2CN1C(=O)NC1(C#N)CC1 [Compound 273, (S)-3-((S)-sec-butyl)-N-(1-cyanocyclopropyl)-2-oxo-1,2,3,5-tetrahydro-4H-benzo[e][1,4]diazepine-4-carboxamide] | 3.02 µM
CC[C@H](C)[C@H]1C(=O)Nc2ccccc2CN1C(=O)Nc1ccc(=O)n(CC(F)F)n1 [Compound 274, (S)-3-((S)-sec-butyl)-N-(1-(2,2-difluoroethyl)-6-oxo-1,6-dihydropyridazin-3-yl)-2-oxo-1,2,3,5-tetrahydro-4H-benzo[e][1,4]diazepine-4-carboxamide] | 0.06 µM
CC[C@H](C)[C@H]1C(=O)Nc2ccccc2CN1C(=O)Nc1ccc(=O)n(CC(F)(F)F)n1 [Compound 275, (S)-3-((S)-sec-butyl)-2-oxo-N-(6-oxo-1-(2,2,2-trifluoroethyl)-1,6-dihydropyridazin-3-yl)-1,2,3,5-tetrahydro-4H-benzo[e][1,4]diazepine-4-carboxamide] | 0.06 µM
CC[C@H](C)[C@H]1C(=O)Nc2ccccc2CN1C(=O)NCc1ccccc1 [Compound 276, (S)-N-benzyl-3-((S)-sec-butyl)-2-oxo-1,2,3,5-tetrahydro-4H-benzo[e][1,4]diazepine-4-carboxamide] | 0.24 µM
CC[C@H](C)[C@H]1C(=O)Nc2ccccc2CN1C(=O)Nc1cccc(F)c1 [Compound 277, (S)-3-((S)-sec-butyl)-N-(3-fluorophenyl)-2-oxo-1,2,3,5-tetrahydro-4H-benzo[e][1,4]diazepine-4-carboxamide] | 0.08 µM
CC[C@H](C)[C@H]1C(=O)Nc2ccccc2CN1C(=O)Nc1cnc2[nH]ncc2c1 [Compound 278, (S)-3-((S)-sec-butyl)-2-oxo-N-(1H-pyrazolo[3,4-b]pyridin-5-yl)-1,2,3,5-tetrahydro-4H-benzo[e][1,4]diazepine-4-carboxamide] | 0.05 µM
CC[C@H](C)[C@H]1C(=O)Nc2ccccc2CN1C(=O)N1CC[C@H](C(=O)OC)C1 [Compound 279, methyl (S)-1-((S)-3-((S)-sec-butyl)-2-oxo-2,3,4,5-tetrahydro-1H-benzo[e][1,4]diazepine-4-carbonyl)pyrrolidine-3-carboxylate] | 1.46 µM
CC[C@H](C)[C@H]1C(=O)Nc2ccccc2CN1C(=O)N1CC[C@@H](O)C1 [Compound 280, (S)-3-((S)-sec-butyl)-4-((R)-3-hydroxypyrrolidine-1-carbonyl)-1,3,4,5-tetrahydro-2H-benzo[e][1,4]diazepin-2-one] | 1.06 µM
CC[C@H](C)[C@H]1C(=O)Nc2ccccc2CN1C(=O)N1CCN(CCc2ccccc2)CC1 [Compound 281, (S)-3-((S)-sec-butyl)-4-(4-phenethylpiperazine-1-carbonyl)-1,3,4,5-tetrahydro-2H-benzo[e][1,4]diazepin-2-one] | 0.30 µM
